Patent US7501281B2, “Compositions, methods and kits related to thrombin, Notch signaling and stamatogenesis and growth of stem cells” (Maine Medical Center Research Institute, priority 2003, dated 2009)
Marks after values point to notes of the source that are not given here.

B1: sDl1: soluble non-transmembrane form of the Notch ligand Delta1 (protein)
chain: QVWSSGVFELKLQEFVNKKGLLGNRNCCRGGAGPPPCACRTFFRVCLKHYQASVSPEPPCTYGSAVTPVLGVDSFSLPDGGGADSAFSNPIRFPFGFTWPGTFSLIIEALHTDSPDDLATENPERLISRLATQRHLTVGEEWSQDLHSSGRTDLKYSYRFVCDEHYYGEGCSVFCRPRDDAFGHFTCGERGEKVCNPGWKGPYCTEPICLPGCDEQHGFCDKPGECKCRVGWQGRYCDECIRYPGCLHGTCQQPWQCNCQEGWGGLFCNQDLNYCTHHKPCKNGATCTNTGQGSYTCSCRPGYTGATCELGIDECDPSPCKNGGSCTDLENSYSCTCPPGFYGKICELSAMTCADGPCFNGGRCSDSPDGGYSCRCPVGYSGFNCEKKIDYCSSSPCSNGAKCVDLGDAYLCRCQAGFSGRHCDDNVDDCASSPCANGGTCRDGVNDFSCTCPPGYTGRNCSAPVSRCEHAPCHNGATCHERGHRYVCECARGYGGPNCQFLLPELPPGPAVVDLTEKLEGQGGPFPW
modifications: left off: small tags and cut ends
notes: soluble non-transmembrane form of the Notch ligand Delta1

Tests used:
NCSC populations = assay: Clonogenic differentiation and serial subcloning assays of NCSC clones (secondary NCSC); assay type: cell-based, murine; set-up: G / Sm / G + Sm: unit not given here; conditions: for NCSC clones that did not express either gliogenic or neurogenic differentiation markers: after 7 days of expansion; for clones that were trifatent (neurons, glial, and smooth muscle progeny): secondary clones established from treated founder clones
Experimental: Clonogenic assays were performed as described (Stemple et al., 1992, Cell 71:973-985). Briefly, populations of murine NCSC were plated at a clonal density and maintained for a maximum of 14 days in Morrison media supplemented with 15% chick embryo extract (Morrison et al., 1999, Cell 96:737-749). The resulting clones were fixed in an acetic acid:ethanol solution (2:1) and stained with antibodies against peripherin (Chemicon) to detect neurons, smooth muscle actin (Sigma) to detect myofibroblasts, and GFAP (Chemicon) to detect Schwann cells. Clones were scored based on the appearance of just one phenotypic representative. The number and percentage of clones containing neurons only (N), Schwann cells only (S), myofibroblasts only (M), N+S, N+M, N+S+M, and S+M were scored at day 14 unless otherwise stated. The production of each representative phenotype in each individual clone was also scored to complement the clonal population assay.
In order to generate secondary NCSC populations, founder clones originating from differentiating E10 clones at distinct time points during NCSC differentiation (days 2 through 18) were treated with trypsin and replated at a cell clonal density using methods previously described (Kubu et al., 2000, Genomics 70:150-152). The resulting cells were subjected to immunofluorescence microscopy using both p75^+ and P0^− antibodies (Kubu et al., 2000, Genomics 70:150-152) and the p75^+/P0^− cells identified as putative stem cells. All non-p75^+/P0^− cells were removed from the dish with a tungsten needle. The cultures of secondary NCSC clones were subjected to the clonogenic assay as described above.
Specifically, clonogenic differentiation and serial subcloning assays were performed using NCSC clones incubated with either thrombin, sDl1, sJ1 or TRAP.
Briefly, presented are the number of colonies with the resulting differentiation profiles (mean±SD of three experiments resulting from individual NCSC isolations).
A genetic approach was used to determine whether thrombin, TRAP, or sJ1 were able to promote cell cycle progression in the NCSC population. Thus, a dnFGFR1 construct was expressed in the NSC cells and the clonogenic differentiation assay conducted in the presence of either sJ1, thrombin or no additional supplement.

[1] = tested on: FGF1.A transcript in murine NCSC; assay: RT-PCR analysis of FGF1.A mRNA expression in NCSC; assay type: cell-based; conditions: 48 hours; 7.5 nM sJ1, 5.0 nM sDl1, 10 μg/ml α-thrombin or 5 μg/ml TRAP
[2] = tested on: clonal cortical neurospheres; assay: Cortical neurosphere model, secondary sphere formation; assay type: cell-based, murine; conditions: for F/SP × 10^2 / Cells/Founder (F) / Secondary Spheres (SP): day 10; for Cells/Founder (F): mean±SD; for Secondary Spheres (SP): from dissociation of founder spheres, mean±SD of three experiments; for secondary spheres per primary sphere: primary spheres grown 2 weeks with the factor, secondary spheres in standard media
Excerpt: The E14 prefrontal ventricular zone was dissected and plated at a clonal neurosphere-forming density in the presence of either sJ1, sDl1, thrombin, TRAP or no supplementation. After 2 weeks, the clones were dissociated to single cells and secondary spheres were generated using standard media with no supplementation (Reynolds et al., 1992, J. Neurosci. 12:4565-4574).
Secondary spheres (SP) are formed from the dissociation of founder (F) spheres. The data presented are the number of colonies (mean±SD of three experiments). (*=p≦0.05).

[3] = tested on: neurosphere cultures and p75+/P0- neural crest stem cells; assay: RT-PCR of self-renewal transcripts Nestin, Nucleostemin and Bmi1; assay type: cell-based, murine; conditions: for relative expression of Nestin, Nucleostemin and Bmi1 transcripts: primary and secondary neurosphere cultures
Experimental: Clonal NCSC neurospheres were generated and allowed to expand for 10 days in either 7.5 nM sJ1, 5 nM sD1, 5 μg/ml α-thrombin, and no additive (control) (FIG. 13A) as described elsewhere herein. Clonal NCSC neurospheres were generated in a feeder-layer coculture system using a monolayer of stable full-length (FL) Jagged1 NIH 3T3 cell transfectants or insert-less NIH 3T3 cell transfectants and treated with either 5 μg/ml thrombin or without further supplementation (control) (FIG. 13B). The results are presented as representative photomicrographs of the spheres obtained under each condition after 14 days of treatment. […] Clonal neurospheres were generated in the presence of either 5 μg/ml α-thrombin, 7.5 nM sJ1, 5 nM sDl1 or no supplement (control) and expanded for 14 days. RT-PCR was used to determine the steady-state mRNA level for three markers of neural stem cells (Nestin, Nucleostemin and Bmi1). An increase in the expression of all three transcripts compared to control was observed. […] Approximately 5×10^2 NCSC were plated in Morrison media supplemented with either 7.5 nM sJ1, 5 μg/ml α-thrombin, 5 nM sD1, 2 ng/ml BMP2 or no additive (control) for 48 hours. The results are presented as the percent of control (mean±standard deviation of three RT-PCR experiments) performed in triplicate. No change in the steady-state level mRNA levels of the three markers relative to actin was observed.
RT-PCR was performed with 1 μg RNA using the Platinum Taq One Step RT-PCR kit (Invitrogen) as follows: RT (30 minutes at 50° C.), PCR (40 cycles at 94° C. for 15 seconds, at 58° C. for 30 seconds and 72° C. for 1 minute). All amplified cDNA was visualized with ethidium bromide followed by 1.5% agarose gel electrophoresis. RT-PCR analysis of fgf and gapdh was performed as previously described elsewhere herein. […] Each reaction product was measured as a ratio relative to the amplification product of actin and samples were run in triplicate. […]

[4] = colonies from secondary NCSC, mean±SD
[5] = dnFGFR1-transduced NCSC, trifatent
[6] = glial-only colonies from secondary NCSC, mean±SD
[7] = secondary stem cells from NCSC founders after ten days of expansion, mean±SD
[8] = smooth muscle-only colonies from secondary NCSC, mean±SD
[9] = trifatent colonies from secondary NCSC, mean±SD

Molecule | NCSC clones that did not express either gliogenic or neurogenic differentiation markers (NCSC populations) [%] | G + Sm (NCSC populations; [4]) | N + G (NCSC populations; [4]) | N + Sm (NCSC populations; [4]) | G (NCSC populations; dnFGFR1-transduced NCSC) | G + Sm (NCSC populations; dnFGFR1-transduced NCSC) | N + G (NCSC populations; dnFGFR1-transduced NCSC) | N + Sm (NCSC populations; dnFGFR1-transduced NCSC) | Secondary NSSC/Founder (NCSC populations; dnFGFR1-transduced NCSC) | Sm (NCSC populations; dnFGFR1-transduced NCSC) | G (NCSC populations; [6]) | clones that were trifatent (neurons, glial, and smooth muscle progeny) (NCSC populations) [%] | Secondary NSSC/Founder (NCSC populations; [7]) | Sm (NCSC populations; [8]) | N + G + Sm (NCSC populations; [9]) | expression of the FGF1.A transcript [1] | F/SP × 10^2 [2] | Cells/Founder (F) [2] | Secondary Spheres (SP) [2] | secondary spheres per primary sphere [2] | other results
Thrombin | 75±11 | 2.0 ± 2.1 | 3.93 ± 3.8 | 4.5 ± 2.1 | 1.7 ± 3.1 | 6.9 ± 8.3 | 9.8 ± 3.2 | 5.5 ± 1.5 | 13.5 ± 2.9 | 24.13 ± 1.4 | 0 ± 0 | 86.8±2.1 | 36.8 ± 6.3 | 2.6 ± 1.01 | 86.8 ± 2.1 | induced | 13%* | 488 ± 166* | 64 ± 11 | 55±14 | N (NCSC populations; dnFGFR1-transduced NCSC): 5.9 ± 1.7; N + G + Sm (NCSC populations; [5]): 46.0 ± 13.6; relative expression of Nestin, Nucleostemin and Bmi1 transcripts [3]: elevated
sJ1: Soluble Jagged1, amino acid residues from about 1 to 1067 (SEQ ID NO:3) of full-length Jagged1 | 84±7 | 3.4 ± 2.8 | 7.0 ± 5.6 | 1.5 ± 1.7 | 9.3 ± 2.7 | 10.3 ± 6.3 | 7.2 ± 4.5 | 6.2 ± 7.0 | 13.5 ± 4.7 | 16.4 ± 8.5 | 7.8 ± 1.4 | 74.1±9 | 26.2 ± 6 | 6.2 ± 1.0 | 74.1 ± 9.1 | induced | 10%* | 527 ± 170* | 55 ± 14 | 64±11 | N + G + Sm (NCSC populations; [5]): 48.0 ± 11.8; relative expression of Nestin, Nucleostemin and Bmi1 transcripts [3]: elevated
B1 | 0±0 | 3.4 ± 2.8 | 0 | 0 | – | – | – | – | – | – | 72 ± 6.4 | 0.5 | 0.6 ± 1.0 | 20.5 ± 6.5 | 0.5 ± 0.7 | did not influence | 2.0% | 150 ± 69* | 3 ± 3 | 3±3 | levels of Nestin, Nucleostemin and Bmi1 transcripts ([3]; p75+/P0- neural crest stem cells, 24 and 48 hours): sharply decreased
